{"source": "patent US20200360331A1", "about": "“COMPOSITIONS COMPRISING 15-HEPE AND/OR 15-HETrE AND METHODS OF TREATING OR PREVENTING CARDIOMETABOLIC DISEASE, METABOLIC SYNDROME, AND/OR RELATED DISEASES” (Afimmune Limited, priority 2019, published 2020)", "test_system": "EGFR (epidermal growth factor receptor)", "experiment": "Sucrose density gradient analysis in Mv1Lu cells, EGFR", "format": "cell-based, mink", "conditions": "100 μM, 0, 1, 4 and 24 hours", "procedure": "Sucrose gradient ultracentrifugation and confocal microscopy were used to identify 15-HEPE induced microdomain translocation of TGF-β receptors by sucrose. Sucrose density gradient analysis of TGF-β receptors was conducted in the plasma membranes of Mv1Lu cells (mink lung epithelial cell) treated with 100 μM of 15-HEPE and an equal volume of DMSO (dimethyl sulfoxide) at 37° C. for 0, 1, 4, and 24 hours, and the cell lysates from these treated cells were subjected to sucrose density gradient ultracentrifugation. The sucrose gradient fractions were then analyzed by Western blot analysis using anti-TβR-I (type I TGF-β receptor), anti-TβR-II (type II TGF-β receptor), anti-TβR-III (type III TGF-β receptor, betaglycan), anti-EGFR (epidermal growth factor receptor), and anti-caveolin-1 antibodies. The lipid raft/caveolae, and non-lipid raft microdomain localization of TβR-I, TβR-II, TβR-III, EGFR and caveolin-1 in the plasma membrane of untreated cells or cells treated with 15-HEPE were assessed to determine the effects of 15-HEPE on the membrane microdomain localization of the TGF-β receptors. […]"}
{"smiles": "CC/C=C\\CC(O)/C=C/C=C\\C/C=C\\C/C=C\\CCCC(=O)O", "note": "(stereo not shown) [DS102, 15-hydroxy-eicosa-5Z,8Z,11Z,13E,17Z-pentaenoic acid]", "values": [{"measurement": "localization and abundance of EGFR", "value": "did not change the localization and abundance"}]}
